One assay deals with Bub1 (Homo sapiens (Human), UniProt O43683). Kind of assay: Bub1 kinase assay (TR-FRET, 10 μM ATP). The assay is classed as biochemical. The settings on record: mean, read-out: Bub1 kinase assay IC50 [mol/l] (mean). The text has this:
Bub1-inhibitory activities of compounds described in the present invention were quantified using a time-resolved fluorescence energy transfer (TR-FRET) kinase assay which measures phosphorylation of the synthetic peptide Biotin-Ahx-[…]—SEQ ID NO: 5 (C-terminus in amide form), purchased from e.g. Biosyntan (Berlin, Germany) by the (recombinant) catalytic domain of human Bub1 (amino acids 704-1085), expressed in Hi5 insect cells with an N-terminal His6-tag (SEQ ID NO: 9) and purified by affinity-(Ni-NTA) and size exclusion chromatography.
In a typical assay 11 different concentrations of each compound (0.1 nM, 0.33 nM, 1.1 nM, 3.8 nM, 13 nM, 44 nM, 0.15 μM, 0.51 μM, 1.7 μM, 5.9 μM and 20 μM) were tested in duplicate within the same microtiter plate. To this end, 100-fold concentrated compound solutions (in DMSO) were previously prepared by serial dilution (1:3.4) of 2 mM stocks in a clear low volume 384-well source microtiter plate (Greiner Bio-One, Frickenhausen, Germany), from which 50 nl of compounds were transferred into a black low volume test microtiter plate from the same supplier. […] The resulting mixture (5 μl final volume) was incubated at 22° C. during 60 min., and the reaction was stopped by the addition of 5 μl of an aqueous EDTA-solution (50 mM EDTA, in 100 mM HEPES pH 7.5 and 0.2% (w/v) bovine serum albumin) which also contained the TR-FRET detection reagents (0.2 μM streptavidin-XL665 [Cisbio Bioassays, Codolet, France] and 1 nM anti-phosho-Serine antibody [Merck Millipore, cat. #35-002] and 0.4 nM LANCE EU-W1024 labeled anti-mouse IgG antibody [Perkin-Elmer, product no. AD0077, alternatively a Terbium-cryptate-labeled anti-mouse IgG antibody from Cisbio Bioassays can be used]). The stopped reaction mixture was further incubated 1 h at 22° C. in order to allow the formation of complexes between peptides and detection reagents. Subsequently, the amount of product was evaluated by measurement of the resonance energy transfer from the Eu-chelate-antibody complex recognizing the Phosphoserine residue to the streptavidin-XL665 bound to the biotin moiety of the peptide. To this end, the fluorescence emissions at 620 nm and 665 nm after excitation at 330-350 nm were measured in a TR-FRET plate reader, e.g. a Rubystar or Pherastar (both from BMG Labtechnologies, Offenburg, Germany) or a Viewlux (Perkin-Elmer) and the ratio of the emissions (665 nm/[…]) was taken as indicator for the amount of phosphorylated substrate. The data were normalised using two sets of control wells for high-(=enzyme reaction without inhibitor=0%=Minimum inhibition) and low-(=all assay components without enzyme=100%=Maximum inhibition) Bub1 activity. IC50 values were calculated by fitting the normalized inhibition data to a 4-parameter logistic equation (Minimum, Maximum, IC50, Hill; Y=Max+(Min−Max)/(1+(X/IC50)Hill)).

For assay [1], the target named is EGFR ins SVD (insertion of SVD between D770 and N771) (Homo sapiens, UniProt P00533, INS767SVD). Kind of assay: Exon 20-Mutant-EGFR(D770_N771insSVD) kinase assay (TR-FRET). The class given is biochemical.
Sequence of EGFR ins SVD (insertion of SVD between D770 and N771) (P00533 with tags, fused parts or gaps INS767SVD limits assumed): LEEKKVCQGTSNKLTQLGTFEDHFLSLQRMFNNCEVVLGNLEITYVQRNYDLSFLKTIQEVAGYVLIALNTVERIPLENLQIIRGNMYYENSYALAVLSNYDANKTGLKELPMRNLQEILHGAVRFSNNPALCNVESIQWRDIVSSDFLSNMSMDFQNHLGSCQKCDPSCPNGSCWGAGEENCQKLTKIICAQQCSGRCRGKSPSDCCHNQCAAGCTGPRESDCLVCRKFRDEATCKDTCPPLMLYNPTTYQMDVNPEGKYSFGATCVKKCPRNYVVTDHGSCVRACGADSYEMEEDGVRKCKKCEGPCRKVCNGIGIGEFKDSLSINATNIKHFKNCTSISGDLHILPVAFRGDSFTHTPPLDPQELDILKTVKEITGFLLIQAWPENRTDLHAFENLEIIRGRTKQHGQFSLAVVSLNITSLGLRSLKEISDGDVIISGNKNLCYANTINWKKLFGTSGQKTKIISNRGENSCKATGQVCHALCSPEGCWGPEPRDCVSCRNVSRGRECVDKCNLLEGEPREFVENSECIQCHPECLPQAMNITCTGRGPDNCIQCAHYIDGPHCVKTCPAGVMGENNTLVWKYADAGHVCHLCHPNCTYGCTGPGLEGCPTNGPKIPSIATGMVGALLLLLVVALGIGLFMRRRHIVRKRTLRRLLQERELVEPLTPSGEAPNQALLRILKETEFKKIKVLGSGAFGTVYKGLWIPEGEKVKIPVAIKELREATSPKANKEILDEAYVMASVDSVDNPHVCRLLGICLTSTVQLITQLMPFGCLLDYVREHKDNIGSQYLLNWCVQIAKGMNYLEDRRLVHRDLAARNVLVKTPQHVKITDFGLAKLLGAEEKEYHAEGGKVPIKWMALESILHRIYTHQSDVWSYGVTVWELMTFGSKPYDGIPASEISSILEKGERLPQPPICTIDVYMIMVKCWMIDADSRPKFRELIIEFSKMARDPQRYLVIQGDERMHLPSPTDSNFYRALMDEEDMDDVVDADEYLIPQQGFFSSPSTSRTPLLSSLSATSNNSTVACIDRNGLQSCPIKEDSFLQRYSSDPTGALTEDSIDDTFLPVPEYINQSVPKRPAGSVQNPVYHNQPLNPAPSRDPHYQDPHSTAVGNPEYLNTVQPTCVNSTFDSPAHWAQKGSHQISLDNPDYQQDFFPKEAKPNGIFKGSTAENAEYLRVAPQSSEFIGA
A further assay has as its system Ba/F3-EGFR-WT cells. Kind of assay: Proliferation assay in BA/F3 (wild type) cells (Cell Titer-Glo). The class given is cell-based. To be noted: Mus musculus, BaF3, 48 h, Table 10, plated with 10 ng/mL EGF. The gist of the method: (§1)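 Ba/F3 cells stably expressing retrovirally transduced EGFR-WT or EGFR-insSVD; WT cells plated with 10 ng/mL EGF, insSVD cells without EGF. Compound exposure 48 h at 37° C; viability read by CellTiter-Glo luminescence.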

The target of assay [2] is EGFR ins ASV (insertion of ASV between V769 and D770). Kind of assay: Exon 20-Mutant-EGFR(V769_D770insASV) kinase assay (TR-FRET). The assay is classed as biochemical, human. The settings on record: 2 mM ATP.
Experimental: Exon 20-Mutant-EGFR(V769_D770insASV) Kinase Assay
Inhibitory activity of compounds of the present invention against an Epidermal Growth Factor Receptor (EGFR) with an insertion of the amino acids sequence ASV between V769 and D770 was quantified employing the TR-FRET based kinase activity assay as described in the following paragraphs.
For the assay 50 nl of a 100-fold concentrated solution of the test compound in DMSO was pipetted into either a black low volume 384well microtiter plate or a black 1536 well microtiter plate (both Greiner Bio-One, Frickenhausen, Germany), 2 μl of a solution of EGFR in aqueous assay buffer [50 mM Hepes pH 7.0, 10 mM MgCl2, 1 mM dithiothreitol, 0.5 mM EGTA, 0.3 mM activated sodium ortho-vanadate, 0.005% (w/v) bovine serum albumin, 0.005% (v/v) Tween-20] were added and the mixture was incubated for 15 min at 22° C. to allow pre binding of the test compounds to the enzyme before the start of the kinase reaction. […] The concentration of EGFR was adjusted depending of the activity of the enzyme lot and was chosen appropriate to have the assay in the linear range, typical concentration was 2.5 pg/μl. The reaction was stopped by the addition of 3 μl of a solution of HTRF detection reagents (83.3 nM streptavidine-XL665 [Cisbio Bioassays, Codolet, France] and 1.67 nM PT66-Tb-Cryptate, an terbium-cryptate labelled anti-phospho-tyrosine antibody from Cisbio Bioassays [instead of the PT66 Tb cryptate PT66 Eu Chelate from Perkin Elmer can also be used]) in an aqueous EDTA-solution (133.3 mM EDTA, 0.2% (w/v) bovine serum albumin in 50 mM HEPES pH 7.5).
The resulting mixture was incubated 1 h at 22° C. to allow the binding of the biotinylated phosphorylated peptide to the streptavidine-XL665 and the PT66-Tb-Cryptate. Subsequently the amount of phosphorylated substrate was evaluated by measurement of the resonance energy transfer from the PT66-Tb-Cryptate to the streptavidine-XL665.
Another assay has as its system Ba/F3-EGFR-insSVD cells. Kind of assay: Proliferation assay in BA/F3 (ins SVD) cells (Cell Titer-Glo). The settings on record: Mus musculus, BaF3, 48 h, Table 10, plated without EGF. The class given is cell-based. The gist of the method: as §1
[3] abbreviates: 2 mM ATP, mean, read-out: EGFR ins SVD IC50 [mol/l] (mean).
Setting [4] is: Table 9, read-out: mutEGFR (D770_N771insSVD) kinase assay IC50.

Like-named read-outs stand apart in the source and are kept apart here.

Sequence of Bub1 (O43683 704-1085): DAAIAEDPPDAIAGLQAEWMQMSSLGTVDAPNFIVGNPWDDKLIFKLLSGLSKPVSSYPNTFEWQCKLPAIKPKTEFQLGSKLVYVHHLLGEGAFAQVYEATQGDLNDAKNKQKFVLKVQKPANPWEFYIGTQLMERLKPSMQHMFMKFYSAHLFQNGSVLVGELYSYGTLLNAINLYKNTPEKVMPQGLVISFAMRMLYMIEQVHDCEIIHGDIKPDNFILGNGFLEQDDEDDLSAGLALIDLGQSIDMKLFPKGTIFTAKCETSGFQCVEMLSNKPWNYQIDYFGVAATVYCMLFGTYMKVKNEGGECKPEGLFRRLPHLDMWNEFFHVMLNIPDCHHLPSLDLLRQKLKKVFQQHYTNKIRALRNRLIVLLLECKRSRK

With `COC(C)(C)COc1cnccc1-c1[nH]c2c(c1Nc1cccc(F)c1OCC(F)F)C(=O)NCC2` [Example 27, 3-{[2-(2,2-difluoroethoxy)-3-fluorophenyl]amino}-2-[3-(2-methoxy-2-methylpropoxy)pyridin-4-yl]-1,5,6,7-tetrahydro-4H-pyrrolo[3,2-c]pyridin-4-one], the IC50 at Bub1 was found to be 70.1 nM; in assay [1] (setting [3]) it was 2.14 nM; in assay [1] (setting [4]), 2.14 nM; with Ba/F3-EGFR-WT cells it was 2500 nM; in the assay with Ba/F3-EGFR-insSVD cells, 498 nM. Further, the “EGFR ins ASV IC50 [mol] (mean)” value in assay [2] turned out to be 7.09e-09 mol.

Turning to `COCCOc1cnccc1-c1[nH]c2c(c1Nc1ccc(F)c(F)c1OC)C(=O)NCC2` [Example 28, 3-[(3,4-difluoro-2-methoxyphenyl)amino]-2-[3-(2-methoxyethoxy)pyridin-4-yl]-1,5,6,7-tetrahydro-4H-pyrrolo[3,2-c]pyridin-4-one], the IC50 amounted to 565 nM at Bub1; 0.738 nM in assay [1] (setting [3]); 0.54 nM in assay [1] (setting [4]); 3670 nM in the assay on Ba/F3-EGFR-WT cells; 644 nM in the assay on Ba/F3-EGFR-insSVD cells. Moreover, in assay [2], the “EGFR ins ASV IC50 [mol] (mean)” value worked out at 2.69e-08 mol.

Take `COCCOc1cnccc1-c1[nH]c2c(c1Nc1cc(F)cc(F)c1OC)C(=O)NCC2` [Example 30, 3-[(3,5-difluoro-2-methoxyphenyl)amino]-2-[3-(2-methoxyethoxy)pyridin-4-yl]-1,5,6,7-tetrahydro-4H-pyrrolo[3,2-c]pyridin-4-one]: the IC50 at Bub1 amounted to 323 nM; in assay [1] (setting [3]), 0.0969 nM; in assay [1] (setting [4]) it was 0.109 nM; with Ba/F3-EGFR-WT cells, 1860 nM; in the assay with Ba/F3-EGFR-insSVD cells, 149 nM. For the same compound, the “EGFR ins ASV IC50 [mol] (mean)” value in assay [2] worked out at 2.09e-10 mol.

In the case of `COc1c(F)cc(F)cc1Nc1c(-c2ccncc2OCC(C)(C)OC)[nH]c2c1C(=O)NCC2` [Example 31, 3-[(3,5-difluoro-2-methoxyphenyl)amino]-2-[3-(2-methoxy-2-methylpropoxy)pyridin-4-yl]-1,5,6,7-tetrahydro-4H-pyrrolo[3,2-c]pyridin-4-one], the IC50 came to 265 nM on Bub1; 0.0988 nM in assay [1] (setting [3]); 0.193 nM in assay [1] (setting [4]); 1710 nM in the assay with Ba/F3-EGFR-WT cells; 158 nM in the assay with Ba/F3-EGFR-insSVD cells. The “EGFR ins ASV IC50 [mol] (mean)” value in assay [2] is 1.61e-10 mol.

For the origin of these results see patent US11339157B1, “4H-pyrrolo[3,2-c]pyridin-4-one derivatives” (Bayer Aktiengesellschaft, priority 2017, dated 2022).
